Here are results for one molecule from patent US10201530B2, “Treatment of BRCA1-defective cancer or resistant cancers” (City of Hope, priority 2014, dated 2019).

Common to all, as to format: cell-based, human
For assay [1], the system named is OVCAR-4. Kind of assay: Cytotoxicity, OVCAR-4 cells. The following applies: Homo sapiens, read-out: IC50, mean ± SEM. The method, then: (§1) All cell lines were acquired from the American Type Culture Collection (Manassas, Va., USA). Cells were maintained in RPMI 1640 medium (Mediatech) with 10% fetal bovine serum, 2 mM glutamine, and 100 U of penicillin and 100 μg of streptomycin per ml of medium (Sigma) at 37° C. in 5% CO2. To isolate HCC1437+BRCA1 cells, parental HCC1937 cells were transfected with pcDNA3.1 plasmid expressing full-length BRCA1 cDNA. Stable transfectant clones were selected and used for drug sensitivity assays. For stable transfection, cells at 30-40% confluence were incubated overnight with […] of plasmid DNA, using FUGENE® 6 transfectin reagent (Roche Molecular Biochemical, Monza, Italy) according to the manufacturer's instructions. Cells were then selected in puromycin (1 μg/ml) (Invitrogen life Technologies, La Jolla, Calif., USA.) After 20 to 30 days, viable puromycin-resistant colonies from HCC1937 transfections were expanded and screened. The clones that stably expressed […] and retained growth potential were assayed for BRCA1 expression by Western blot analysis. By Western blot analysis, we evaluated the restoration of BRCA1 expression in the puromycin-resistant cDNA/transfectant cells.
(§2) The MTT cytotoxicity assay was performed by incubating with MTT and monitoring the MTT formazan formed by viable cells with a microplate reader at a wavelength of 560 nm; the survival, ratio was determined using the formula: (Atest−Ablank)/(Acontrol−Ablank)×100%. The cytotoxicity was determined in 96-well plates using the semiautomatic fluorescence-based Digital Imaging Microscopy System (DIMSCAN). DIMSCAN uses digital imaging microscopy to quantify viable cells, which selectively accumulate FDA (fluorescein diacetate; Alfa Aesar, Ward Hill, Mass.). DIMSCAN is capable of measuring cytotoxicity over a 4 log dynamic range by quantifying total fluorescence per well (which is proportional to the number of viable cells) after elimination of the background fluorescence by digital thresholding and eosin Y (Mallinckrodt Baker, Center Valley, Pa.) quenching. Cells were seeded into 96-well plates in 100 μL of complete medium at 2,000 to 5,000 cells per well depending on cell line growth rate. After overnight incubation, test compound was added to each well at various concentrations in 50 μL of culture medium. After incubation with the drugs for 96 hours at 37° C., FDA (final concentration: […]) and eosin Y [final concentration: 0.1% (w/v)] were added to each well and the cells were incubated for an additional 20 minutes at 37° C. Total fluorescence per well was then measured using DIMSCAN, and the results were expressed as the ratio of the fluorescence in treated wells to the fluorescence in untreated wells (survival fraction).

For assay [2], the system named is KB-7D. Kind of assay: Cytotoxicity, KB-7D cells. The following applies: Homo sapiens, KB7D, cisplatin-resistant, read-out: IC50, mean ± SEM. The method, then:
as §1, §2

For assay [3], the system named is A2780. Kind of assay: Cytotoxicity, A2780 cells. The following applies: Homo sapiens; A2780, cisplatin-sensitive ovarian cells; read-out: IC50, mean ± SEM. The protocol:
as §1, §2

Assay [4] has as its system MDA-MB-231. Kind of assay: Cytotoxicity, MDA-MB-231 cells. The following applies: Homo sapiens; MDA-MB-231, TNBC; read-out: IC50, mean ± SEM. The protocol:
as §1, §2

Assay [5] relates to MCF-7. The assay can be described thus: Cytotoxicity, MCF-7 cells. The following applies: Homo sapiens, MCF7; MCF-7, ER+ PR(+). The method, then:
as §1
The MTT cytotoxicity assay was performed by incubating with MTT and monitoring the MTT formazan formed by viable cells with a microplate reader at a wavelength of 560 nm; the survival, ratio was determined using the formula: (Atest−Ablank)/(Acontrol−Ablank)×100%. The cytotoxicity was determined in 96-well plates using the semiautomatic fluorescence-based Digital Imaging Microscopy System (DIMSCAN). DIMSCAN uses digital imaging microscopy to quantify viable cells, which selectively accumulate FDA (fluorescein diacetate; Alfa Aesar, Ward Hill, Mass.). DIMSCAN is capable of measuring cytotoxicity over a 4 log dynamic range by quantifying total fluorescence per well (which is proportional to the number of viable cells) after elimination of the background fluorescence by digital thresholding and eosin Y (Mallinckrodt Baker, Center Valley, Pa.) quenching. […]

In assay [6] the test system is γ-H2AX, phospho-p53, phospho-ATM, foxo3, Rad51, BRCA1. The assay can be described thus: DDR-associated proteins in A549 cells (Western blot, immunofluorescence). The protocol: Immunofluorescence experiments were conducted as described previously (21,22). Specifically, A549 cells were grown on glass coverslips. After treatment with COH29 (1 or 10 μM) for 24 or 48 hours, cells were fixed with 4% paraformaldehyde for 10 min and permeabilizsd with TRITON™ X-100 (0.5%). The coverslips were washed with phosphate-buffered saline (PBS) and blocked with PBS-containing 2% bovine serum albumin (BSA), incubated with an Ab specific to FOXO3 or ATM-pS1981 or γ-H2AX or p53-pS15 (1:50-1:200 dilution), followed by Alexa 488-conjugated anti-rabbit or anti-mouse (1:200). Alexa 594-conjugated anti-goat (1:100) secondary Abs (Molecular Probes). Cells were incubated with 4′,6-diamidino-2-phenylindole (DAP1; Sigma) to stain the nuclei. Specific staining was visualized and images were captured with a Leica SF2 AOBS confocal laser scanning microscope. To measure foci-positive cells, we used ˜300 cells randomly captured by confocal microscopy. The percentages of considering foci-positive cells were calculated from cells containing at least five foci. Each error bar presented is the mean of standard deviation.
For subcellular fractionation, cells were trypsinized and washed with cold PBS solution twice. After centrifugation at 1,200 g for 5 min, cells were incubated in buffer (50 mM HEPES, pH 7.5, 150 mM NaCl, 1 mM EDTA) containing 0.2% NONIDET™ P-40 (NP-40), supplemented with protease inhibitors (5 μg/ml each of pepstatin, leupeptin, and aprotinin) and phosphatase inhibitors on ice for 5 min. Following centrifugation at 1,000 g for 5 min, the supernatant was collected (i.e., cytoplasmic fraction) and pellets were washed with the same buffer twice. The washed samples were extracted for 40 min on ice with fractionation buffer containing 0.5% NP-40 for nuclear fraction. All the samples were sonicated and clarified by centrifugation at 16,000 g for 15 min. Protein concentrations of all fractions were determined with Bio-Rad Protein Assay (Bio-Rad Laboratories, Hercules, Calif.). Immunoblotting was performed as described previously (21,22). Briefly, equal amounts of boiled protein samples were subjected to SDS-polyacrylamide gel electrophoresis (PAGE) and transferred onto nitrocellulose membranes (Bio-Rad Laboratories). Membranes were blocked for 1 hour in 3% BSA in Tris buffered saline containing 0.05% Tween 20 (TBST) and incubated for 1 hour with primary antibody (1:500 or 1:1000) diluted in TBST containing 1% BSA. After two washes with TBST, membranes were incubated for 1 hour with horseradish peroxidase-conjugated secondary Abs (1:3000 dilution) at room temperature. The immunoblots were visualized on film with the West-Q chemi-luminescence kit (GenDEPOT, Barker, Tex.).
For orientation: In western blotting, separated proteins are transferred to a membrane and probed.

By IC50 is commonly meant the concentration at which inhibition is half-maximal. In the case of `O=C(Nc1nc(-c2ccc(O)c(O)c2)c(-c2ccccc2)s1)c1ccc(O)c(O)c1` [COH29], the half-inhibitory concentration (IC50) was 11.2 ± 1.51 µM in assay [1]; 8.48 ± 0.27 µM in assay [2]; 4.67 ± 1.64 µM in assay [3]; 9.7 ± 1.52 µM in assay [4]; 17.6 ± 1.54 µM in assay [5]. For the same molecule, the “nuclear γ-H2AX, phospho-p53, phospho-ATM” value in assay [6] (A549 BRCA1 wild-type NSCLC cells, 48 h) is “induced accumulation of γ-H2AX, phospho-p53, and phospho-ATM in the nucleus”. The “nuclear foxo3 and p27” value in assay [6] (A549 cells) is “induction of foxo3 and its target protein p27 in the nucleus”. Moreover, in assay [6] (A549 cells, 24 h), the “BRCA1 protein level and Rad51 foci formation” value is “suppressed the protein level of BRCA1 and Rad51 foci formation”. For the same molecule, in assay [6] (nucleus of A549 cells), the “Rad51 expression, Western analysis” value was “downregulated in the nucleus”.
